Data reported in ChEMBL document CHEMBL2396531, “Hybrid molecule from O2-(2,4-dinitrophenyl)diazeniumdiolate and oleanolic acid: a glutathione S-transferase π-activated nitric oxide prodrug with selective anti-human hepatocellular carcinoma activity and improved stability” (J Med Chem, 2013).
Activity calls are given as the source filed them. No cut-off for these calls is given here.

How the values were obtained:
Homo sapiens = species: Homo sapiens; test: Ratio of Kcat to Km for human GSTalpha
L02 [1] = test: Induction of intracellular NO release in human LO2 cells after 6 hrs by Griess assay; format: functional, cell-based
HepG2 [2] = test: Induction of intracellular NO release in human HepG2 cells at 1.5 to 6 uM after 24 hrs by Griess assay in presence of hemoglobin; format: functional, cell-based
HepG2 [3] = test: Induction of intracellular NO release in human HepG2 cells at 1.5 to 6 uM after 24 hrs by DAF-FM DA staining-based flow cytometry; format: functional, cell-based
HepG2 [4] = test: Cell cycle arrest in human HepG2 cells assessed as accumulation at G2/M phase after 24 hrs by flow cytometry; format: functional, cell-based
HepG2 [5] = test: Cell cycle arrest in human HepG2 cells assessed as decrease of cells at G0/G1 phase after 24 hrs by flow cytometry; format: functional, cell-based
HepG2 [6] = test: Induction of apoptosis in human HepG2 cells assessed as incerase in Cyt c expression after 24 hrs by Western blotting analysis; format: functional, cell-based
HepG2 [7] = test: Induction of apoptosis in human HepG2 cells assessed as increase in JNK phosphorylation after 24 hrs by Western blotting analysis; format: functional, cell-based
H22 [8] = test: Antitumor activity against mouse H22 cells […] in ip dosed mouse assessed as reduction in tumor volume after 14 days relative to vehicle-treated control; format: functional, organism-based
HepG2 [9] = test: Induction of apoptosis in human HepG2 cells assessed as incerase in Caspase 3 expression at 6 uM by Western blotting analysis; format: functional, cell-based; settings: TDE = time-dependent effect
HepG2 [10] = test: Cytotoxicity against human HepG2 cells after 24 hrs by MTT assay; format: functional, cell-based
HepG2 [11] = test: Induction of apoptosis in human HepG2 cells assessed as incerase in Caspase 3 expression after 24 hrs by Western blotting analysis; format: functional, cell-based
L02 [12] = test: Induction of intracellular NO release in human LO2 cells at 6 uM by Griess assay; format: functional, cell-based; settings: TDE = time-dependent effect
HepG2 [13] = test: Induction of apoptosis in human HepG2 cells at 3 uM after 24 hrs by Western blotting analysis in presence of EA; format: functional, cell-based
HepG2 [14] = test: Cytotoxicity against human HepG2 cells at 5 t0 35 uM by MTT assay; format: functional, cell-based; settings: TDE = time-dependent effect
HepG2 [15] = test: Induction of apoptosis in human HepG2 cells assessed as reduction in Bcl2 expression at 6 uM by Western blotting analysis; format: functional, cell-based; settings: TDE = time-dependent effect
HepG2 [16] = test: Induction of apoptosis in human HepG2 cells assessed as increase in JNK phosphorylation at 3 uM by Western blotting analysis; format: functional, cell-based; settings: TDE = time-dependent effect
HepG2 [17] = test: Induction of apoptosis in human HepG2 cells assessed as reduction in Bcl2 expression after 24 hrs by Western blotting analysis; format: functional, cell-based
HepG2 [18] = test: Induction of intracellular NO release in human HepG2 cells after 6 hrs by Griess assay; format: functional, cell-based
HepG2 [19] = test: Induction of apoptosis in human HepG2 cells assessed as loss of mitochondrial membrane potential at 1.5 to 6 uM after 24 hrs by JC-1 staining-based flow cytometry; format: functional, cell-based
HepG2 [20] = test: Induction of intracellular NO release in human HepG2 cells after 24 hrs by DAF-FM DA staining-based flow cytometry; format: functional, cell-based
HepG2 [21] = test: Induction of apoptosis in human HepG2 cells after 24 hrs by FITC-Annexin V/PI staining-based flow cytometry; format: functional, cell-based
HepG2 [22] = test: Induction of apoptosis in human HepG2 cells assessed as increase in p38 phosphorylation after 24 hrs by Western blotting analysis; format: functional, cell-based
HepG2 [23] = test: Induction of apoptosis in human HepG2 cells assessed as ROS generation at 1.5 to 6 uM after 24 hrs by flow cytometry in presence of Tiron; format: functional, cell-based
HepG2 [24] = test: Induction of apoptosis in human HepG2 cells assessed as increase in ERK phosphorylation after 24 hrs by Western blotting analysis; format: functional, cell-based
HepG2 [25] = test: Induction of apoptosis in human HepG2 cells assessed as incerase in Bax expression at 6 uM by Western blotting analysis; format: functional, cell-based; settings: TDE = time-dependent effect
HepG2 [26] = test: Induction of apoptosis in human HepG2 cells assessed as incerase in Caspase 9 expression at 6 uM by Western blotting analysis; format: functional, cell-based; settings: TDE = time-dependent effect
HepG2 [27] = test: Induction of apoptosis in human HepG2 cells at 3 uM after 24 hrs by Western blotting analysis in presence of carboxy-PTIO; format: functional, cell-based
HepG2 [28] = test: Cytotoxicity against human HepG2 cells at 10 to 100 uM after 24 hrs by MTT assay; format: functional, cell-based
HepG2 [29] = test: Induction of intracellular NO release in human HepG2 cells at 1.5 to 6 uM after 24 hrs by Griess assay in presence of carboxy-PTIO; format: functional, cell-based
HepG2 [30] = test: Induction of apoptosis in human HepG2 cells at 3 uM after 24 hrs by Western blotting analysis in presence of Tiron; format: functional, cell-based
HepG2 [31] = test: Cytotoxicity against human HepG2 cells assessed as cell viability at 3 uM after 24 hrs by MTT assay in presence of hemoglobin; format: functional, cell-based
H22 [32] = test: Antitumor activity against mouse H22 cells […] in ip dosed mouse assessed as reduction in tumor weight after 14 days relative to vehicle-treated control; format: functional, organism-based
HepG2 [33] = test: Induction of apoptosis in human HepG2 cells assessed as increase in p38 phosphorylation at 3 uM by Western blotting analysis; format: functional, cell-based; settings: TDE = time-dependent effect
HepG2 [34] = test: Induction of apoptosis in human HepG2 cells assessed as incerase in Cyt c expression at 6 uM by Western blotting analysis; format: functional, cell-based; settings: TDE = time-dependent effect
HepG2 [35] = test: Induction of apoptosis in human HepG2 cells assessed as incerase in Bax expression after 24 hrs by Western blotting analysis; format: functional, cell-based
HepG2 [36] = test: Induction of intracellular NO release in human HepG2 cells at 30 uM after 6 hrs by Griess assay; format: functional, cell-based
HepG2 [37] = test: Induction of apoptosis in human HepG2 cells assessed as incerase in Caspase 9 expression after 24 hrs by Western blotting analysis; format: functional, cell-based
HepG2 [38] = test: Induction of apoptosis in human HepG2 cells assessed as increase in ERK phosphorylation at 3 uM by Western blotting analysis; format: functional, cell-based; settings: TDE = time-dependent effect
HepG2 [39] = test: Induction of intracellular NO release in human HepG2 cells at 6 uM by Griess assay; format: functional, cell-based; settings: TDE = time-dependent effect
HepG2 [40] = test: Induction of apoptosis in human HepG2 cells assessed as loss of mitochondrial membrane potential after 24 hrs by JC-1 staining-based flow cytometry; format: functional, cell-based
H22 [41] = test: Antitumor activity against mouse H22 cells […] in mouse assessed as reduction in tumor growth at 38.3 umol/kg, ip after 14 days; format: functional, organism-based
HepG2 [42] = test: Induction of intracellular NO release in human HepG2 cells at 1.5 to 6 uM after 24 hrs by Griess assay in presence of etacrynic acid; format: functional, cell-based
H22 [43] = test: Antitumor activity against mouse H22 cells […] in mouse assessed as reduction in tumor growth at 153.8 umol/kg, ip after 14 days; format: functional, organism-based
HepG2 [44] = test: Induction of apoptosis in human HepG2 cells assessed as increase in ROS generation at 1.5 to 6 uM after 24 hrs by flow cytometry; format: functional, cell-based

CN(CCO)/[N+]([O-])=N\Oc1cc(N2CCN(CC(=O)O[C@H]3CC[C@]4(C)[C@H]5CC=C6[C@@H]7CC(C)(C)CC[C@]7(C(=O)O[C@@H]7O[C@H](CO)[C@H](O)[C@H](O)[C@H]7O)CC[C@@]6(C)[C@]5(C)CC[C@H]4C3(C)C)CC2)c([N+](=O)[O-])cc1[N+](=O)[O-]
kcat/Km (Homo sapiens): 2.73 mM⁻¹ s⁻¹ | Activity (L02 [1]): Dose-dependent effect | Activity (HepG2 [2]): Active | Activity (HepG2 [3]): Active | Activity (HepG2 [4]): Dose-dependent effect | Activity (HepG2 [5]): Dose-dependent effect | Activity (HepG2 [6]): Dose-dependent effect | Activity (HepG2 [7]): Dose-dependent effect | Activity (H22 [8]): Dose-dependent effect | Activity (HepG2 [9]): tde | Activity (HepG2 [10]): Dose-dependent effect | Activity (HepG2 [11]): Dose-dependent effect | Activity (L02 [12]): tde | Activity (HepG2 [13]): Active | Activity (HepG2 [14]): tde | Activity (HepG2 [15]): tde | Activity (HepG2 [16]): tde | Activity (HepG2 [17]): Dose-dependent effect | Activity (HepG2 [18]): Dose-dependent effect | Activity (HepG2 [19]): Active | Activity (HepG2 [20]): Dose-dependent effect | Activity (HepG2 [21]): Dose-dependent effect | Activity (HepG2 [22]): Dose-dependent effect | Activity (HepG2 [23]): Active | Activity (HepG2 [24]): Dose-dependent effect | Activity (HepG2 [25]): tde | Activity (HepG2 [26]): tde | Activity (HepG2 [27]): Active | Activity (HepG2 [28]): Active | Activity (HepG2 [29]): Active | Activity (HepG2 [30]): Active | Activity (HepG2 [31]): Active | Activity (H22 [32]): Dose-dependent effect | Activity (HepG2 [33]): tde | Activity (HepG2 [34]): tde | Activity (HepG2 [35]): Dose-dependent effect | Activity (HepG2 [36]): Active | Activity (HepG2 [37]): Dose-dependent effect | Activity (HepG2 [38]): tde | Activity (HepG2 [39]): tde | Activity (HepG2 [40]): Dose-dependent effect | Activity (H22 [41]): Active | Activity (HepG2 [42]): Active | Activity (H22 [43]): Active | Activity (HepG2 [44]): Active
